Data taken from patent publication US20050277190A1, “Pancreatic stem cells” (priority 2004, published 2005).
Entries after “also recorded” stand apart in the source; their conditions may differ. Ends that are not written are not given here.

Assays:
Type in all cases: cell-based, mouse
[1] = system: PSC spheres; experiment: PSC sphere colony formation assay and serum-free passaging with BIO; conditions: BIO included during primary serum-free sphere formation and serum-free passaging; period of 5 months
From the text: 1) Using the standard PSC sphere colony formation assay, the (commercially available) compound, BIO ((2_Z,3_E)-6-Bromoindirubin-3_-oxime) has been included. […] The GSK-3α/β protein kinases have a critical role within the Wnt-signalling pathway, with their inhibition by BIO leading to an activation of the Wnt pathway. The Wnt pathway is involved with the specification/development of multiple tissues. With BIO inclusion during the primary serum-free sphere formation and subsequent serum-free passaging, PSC spheres can be passaged indefinitely. PSC spheres have been successfully passaged, currently up to the 9th passage over a period of 5 months. The number of sphere-forming cells and resultant clonal spheres expanded (over 30-fold) during this period.
Isolated islets and ductal tissue were then incubated with trypsin (Sigma) at 37° C. and triturated with a small-borehole siliconized pipette into a single cell suspension. Viable cells were counted using Trypan Blue (Sigma) exclusion and plated at 20 cells μl^−1 or less in defined serum-free medium (SFM)^63 containing B27 (Gibco-BRL), 10 ng ml^−1 FGF2 (Sigma), 2 μg ml^−1 heparin (Sigma), and 20 ng ml^−1 EGF (Sigma) for 7-14 DIV. […] Each well was scored after plating for the presence of a single cell. […]

[2] = system: differentiated PSC colonies; experiment: Insulin release by differentiated PSC colonies (radioimmunoassay); conditions: 1.5 hour incubation; for insulin release in response to high glucose plus agent: 20 mM glucose with 30 nM GLP-1, 10 mM TEA or 100 μM verapamil; for insulin release in response to agent alone: 20 mM glucose (HG) or 100 μM carbachol alone, relative to LG-KRB
Description: PSC colonies were pooled and differentiated (8 per well, 96-well Matrigel-coated plates) for 7 days as described. Twenty-four hours prior to secretion studies, the medium was changed to supplemented RPMI-1640 medium as outlined above. Differentiated PSC colonies were pre-incubated in low glucose (2.5 mM) KRB solution (LG-KRB) for 1 hour. The solution was changed to 150 μl of fresh LG-KRB and the cultures were incubated for 1.5 hours to establish the basal level of insulin release. […] Insulin was measured using an RIA kit (Linco). Insulin release during the experimental 1.5 hour incubation was compared to the level determined during the basal 1.5 hour incubation period for each individual well to obtain a percent change. The data are expressed relative to the percent change measured for the LG-KRB to LG-KRB alone condition.

[3] = system: YFP+ cells from islet- and ductal-derived PSC cultures; experiment: [Ca2+]i imaging (Fura2) of RIP-YFP+ cells from differentiated PSC colonies; conditions: agent added on top of glucose; single YFP+ cells, islet- and ductal-derived PSC progeny

Compound | insulin release in response to high glucose plus agent [2] | effect of added agent on glucose-stimulated [Ca2+]i response [3] | further results
O=C1Nc2cc(Br)ccc2/C1=C1/Nc2ccccc2/C1=N\O [BIO, (2_Z,3_E)-6-Bromoindirubin-3_-oxime] | – | – | expansion of the number of sphere-forming cells and resultant clonal spheres [1]: over 30 fold
CC[N+](CC)(CC)CC [TEA, tetra ethyl ammonium] | augmentation of this release; also recorded: increased insulin secretion; also recorded: increased insulin release | augmented | –
COc1ccc(CCN(C)CCCC(C#N)(c2ccc(OC)c(OC)c2)C(C)C)cc1OC (centres unmarked) [verapamil] | abolishes glucose-stimulated insulin release to basal levels; also recorded: abolished the glucose-stimulated insulin release | – | –
C[N+](C)(C)CCOC(N)=O [carbachol] | – | – | insulin release in response to agent alone [2]: insulin release in response to carbachol; also recorded: secrete insulin in response to carbachol; insulin release in response to agent alone ([2]; listed as Carbachol): increased insulin release
glucagon-like peptide-1 (HAEGTFTSDVSSYLEGQAAKEFIAWLVKGR; ends and bridges not checked; UniProt P01275 98-127, looked up) [GLP-1, physiological secretagogue known to stimulate β-cells in a glucose-dependent manner] | augmentation of this release; also recorded: increased insulin secretion; also recorded: increased insulin release | augmented | –
